Measured values: patent publication US20060079497A1, “Lavendamycin analogues and methods of synthesizing and using lavendamycin analogues” (Ball State University, priority 2004, published 2006)
Values joined by “and” are separate entries in the source; they are usually repeats but may differ in a detail not shown here. Equal entries are not always repeated. Where two headings read alike, the source gives them in different places.

Columns and labels:
[1] = Cytotoxicity assay (MTT), normal murine spleen cells stimulated with concanavalin A; assay type: cell-based; conditions: normal mouse spleen stimulated with concanavalin A inhibited by 50%, read-out: Mean CC50 (Normal Mouse Spleen) ± SEM (no. of expts)
Procedure: (§1) Normal murine spleen cells were washed in HBSS, cultured at 2.5×10^6 or 5×10^6 cells per mL in RPMI 1640 (with Hepes) complete medium with 2 mM-L-glutamine, 1 mM sodium pyruvate, 0.05 mM β-mercaptoethanol, penicillin, streptomycin, and amphotericin B with 10% fetal calf serum and Concanavalin A (ConA) at 2.5 μg/mL in a 96-well microtiter plate. A range of diluted analogs were added to triplicate culture wells and the cells were incubated at 37° C. in 5% CO2. Wells containing cells, media and ConA were used as controls. Forty-eight hours post incubation, 20 μL of the vital dye MTT (3-[4,5-Dimethylthiazol-2-yl]-2,5-diphenyltetrazolium bromide; thiazolyl blue) at 5 mg/mL was added to each well and the cultures re-incubated for 4-6 hours. Following centrifugation, the supernatants were decanted and the stained cells were resuspended in 100 μL of 0.4% HCl acidified isopropanol. The optical densities of each well were read at 600 nm using a Cambridge Technologies series 700 microplate reader. The human lymphocytic cell lines CCRF-CEM (ATCC: HTB 176) and H-9 (ATCC: CCL 119) were subcultured from recently cultured cells grown in complete RPMI 1640 medium as described above but without the β-mercaptoethanol and ConA at 6.25×10^5 and 2×10^6 per mL in a 96 well culture plate. These cell numbers represented log phase and early stationary phase of the freshly cultured cells. As these cell lines rapidly reproduce without mitogenic stimulation, Con A was not used. A range of analogues or media alone was added in triplicate to the cultures and the cultures incubated, pulsed with MTT, harvested and their growth estimated as described above for the murine cultures. The CC50 or the concentration of drug which inhibited cell growth as estimated by MTT formazan production to 50% of that of untreated control cells was determined by linear interpolation for each lavendamycin analog.

[2] = Cytotoxicity assay (MTT), human lymphocytic cell lines, pooled data; assay type: cell-based; conditions: H-9 and CEM inhibited by 50%, read-out: Mean CC50 (Human Cell Lines) ± SEM (no. of expts)
Procedure: as §1

HIV-RT = target: T1, HIV-RT (Human immunodeficiency virus type 1 group M subtype B, UniProt P04585); test: Checkerboard combination of lavendamycin analogs with AZT-triphosphate in HIV-RT enzyme assay (Chou and Talalay); assay type: biochemical
T1 construct: 1 unit/mL of HIV-RT (Worthington Biochemical Corp., Freehold, N.J.); purchased Worthington Biochemical Corp., Freehold, N.J
Procedure: The results were analyzed by the method of Chou and Talalay based on the median-effect principle and represented by combination indices (CI) determined for each of the two drug combinations (e.g., see: Chou, T. C.; Talalay, P. “Quantitative Analysis of Dose-Effect Relationships: The Combined Effects of Multiple Drugs or Enzyme Inhibitors,” Adv. Enzyme Regul., 1984, 22, 27-65; and Chou, J.; Chou, T. C. “Dose-Effect Analysis with Microcomputers: Quantitation of ED50, LD50, Synergism, Antagonism, Low-Dose Risk, Receptor-Ligand Binding and Enzyme Kinetics,” In: A computer Software for IBM-PC and Manual, Cambridge, UK, Elsevier-Biosoft, 1987). This method involves the plotting of dose-effect curves for each agent and for each of the different combinations of the agents. The slope of the median-effect plot, which signifies the shape of the dose-effect curve, and the x intercept of the plot, which signifies the potency of each compound alone and each combination, were then used for a computerized calculation of a combination index.
The assay procedure described below is adapted from Okada et al. (Okada, H.; Mukai, H.; Inouye, Y; Nakamura, S. “Biological Properties of Streptonigrin Derivatives II. Inhibition of Reverse Transcriptase Activity,” J. Antibiot., 1986, 39, 306-308). The lavendamycin analogs were initially dissolved in DMSO at a concentration of 1 mg/mL. Occasionally, mild sonication and heat were used to dissolve the less soluble compounds. The dissolved analogs were then serially diluted in distilled water to achieve concentrations in the final reaction mixture ranging from 0.5-15 μM. In addition to the lavendamycin analogs, the final reaction mixture contained 100 mM Tris-HCl (pH 8.0), 5 mM MgCl2, 5 mM dithiothreitol, 60 mM NaCl, 0.2 mM [^3H] thymidine triphosphate(5 μCi well), 4 μg/mL poly (rA)-oligo(dT)12-18 (Amersham Pharmacia Biotech, Piscataway, N.J.) and 1 unit/mL of HIV-RT (Worthington Biochemical Corp., Freehold, N.J.) in a total volume of 300 μL. For each assay, the reaction mixture containing 8× buffer, double distilled H2O, ^3HTTP, template-primer and HIV-RT was pre-mixed in a 15-mL sterile tube in quantities required for the particular experiment. After adding the enzyme, the reaction mixture was mixed and kept on ice. The inhibitors, either AZT(Moravek Biochemicals, Brea, Calif.), analogs or both were added to appropriate wells in a 24 well microtiter plate and ddH2O was added to each well to bring the volume of all test wells to 100 μL. Two hundred μL of the chilled reaction mixture was then added to each of the test wells, mixed, and incubated for 1 hr at 37° C. Several control wells with no inhibitors were included on each test plate. After stopping the reactions with 25 μL 0.1 M EDTA, triplicate samples of 15 μL from each test well were spotted on DE81 ion exchange filter paper squares (Whatman Paper, Maidstone, England). After drying, each filter was washed for 10 minutes three times with 5% TCA-NHPO4, three times with 0.6M NaCl-[…] Na Citrate, one time with ddH2O and one time with 95% ethanol. After drying the individual filter papers were added to 5 mL Scintiverse E (Fisher Scientific, Chicago, Ill.) scintillation fluid and the amount of 3H-TTP uptake measured as counts per minute on a Beckman liquid scintillation counter. […] The results were then analyzed using Calcusyn, a windows software program for dose effect analysis designed by T. -C. Chou and M. P. Hayball and published by Biosoft® (UK).

[3] = normal murine spleen cells stimulated with concanavalin A
[4] = human lymphocytic cell lines CCRF-CEM and H-9, pooled data
[5] = analogue 0.25 μM + AZT 0.007 μM, Trial 1
[6] = analogue 0.25 μM + AZT 0.007 μM, Trial 2
[7] = analogue 0.25 μM + AZT 0.01 μM, Trial 1
[8] = analogue 0.25 μM + AZT 0.01 μM, Trial 2
[9] = analogue 0.25 μM + AZT 0.02 μM, Trial 1
[10] = analogue 0.25 μM + AZT 0.02 μM, Trial 2
[11] = analogue 0.5 μM + AZT 0.007 μM, Trial 1
[12] = analogue 0.5 μM + AZT 0.007 μM, Trial 2
[13] = analogue 0.5 μM + AZT 0.01 μM, Trial 1
[14] = analogue 0.5 μM + AZT 0.01 μM, Trial 2
[15] = analogue 0.5 μM + AZT 0.02 μM, Trial 1
[16] = analogue 0.5 μM + AZT 0.02 μM, Trial 2
[17] = analogue 0.75 μM + AZT 0.01 μM, Trial 1
[18] = analogue 0.75 μM + AZT 0.01 μM, Trial 2
[19] = analogue 0.75 μM + AZT 0.02 μM, Trial 1
[20] = analogue 0.75 μM + AZT 0.02 μM, Trial 2
[21] = analogue 1.5 μM + AZT 0.007 μM, Trial 1
[22] = analogue 1.5 μM + AZT 0.007 μM, Trial 2
[23] = analogue 1.5 μM + AZT 0.01 μM, Trial 1
[24] = analogue 1.5 μM + AZT 0.01 μM, Trial 2
[25] = analogue 1.5 μM + AZT 0.02 μM, Trial 1
[26] = analogue 1.5 μM + AZT 0.02 μM, Trial 2
[27] = analogue 0.75 μM + AZT 0.007 μM, Trial 1
[28] = analogue 0.75 μM + AZT 0.007 μM, Trial 2

Row | SMILES | CC50 at 48 h [1, 3] | CC50 at 48 h [2, 4] | Combination index (HIV-RT; [5]) | Combination index (HIV-RT; [6]) | Combination index (HIV-RT; [7]) | Combination index (HIV-RT; [8]) | Combination index (HIV-RT; [9]) | Combination index (HIV-RT; [10]) | Combination index (HIV-RT; [11]) | Combination index (HIV-RT; [12]) | Combination index (HIV-RT; [13]) | Combination index (HIV-RT; [14]) | Combination index (HIV-RT; [15]) | Combination index (HIV-RT; [16]) | Combination index (HIV-RT; [17]) | Combination index (HIV-RT; [18]) | Combination index (HIV-RT; [21]) | Combination index (HIV-RT; [22]) | Combination index (HIV-RT; [23]) | Combination index (HIV-RT; [24]) | other results
1 | COC(=O)c1nc(-c2ccc3c(n2)C(=O)C(NC(C)=O)=CC3=O)c2[nH]c3ccccc3c2c1C [Compound 11, 7-acetyllavendamycin methyl ester] | 62 ± 5 µM | 31 ± 2 µM | 0.57 | 0.48 | 0.94 | 0.89 | 0.90 | 0.68 | 0.81 | 0.71 | 0.84 | 0.76 | 0.72 | 0.84 | 1.20 | 1.08 | 1.40 | 1.23 | 1.40 | 1.12 | Combination index (HIV-RT): 1.00 and 1.30; Combination index (HIV-RT; [19]): 0.94; Combination index (HIV-RT; [20]): 0.84; Combination index (HIV-RT; [25]): 1.17; Combination index (HIV-RT; [26]): 1.08
2 | CCCCCCCCOC(=O)c1cc2c([nH]c3ccccc32)c(-c2ccc3c(n2)C(=O)C(N)=CC3=O)n1 [Compound 20, Demethyllavendamycin n-Octyl Ester] |  |  | 0.65 | 0.61 | 0.77 | 0.77 | 0.97 | 1.00 | 0.62 | 0.61 | 0.60 | 0.61 | 0.86 | 0.88 | 0.64 | 0.63 | 0.83 | 0.83 | 0.70 | 0.69 | CC50 at 48 h [1]: 48 ± 10 µM; CC50 at 48 h [2]: 47 ± 14 µM; Combination index (HIV-RT): 0.68 and 0.66; Combination index (HIV-RT; [19]): 0.61; Combination index (HIV-RT; [20]): 0.64; Combination index (HIV-RT; [25]): 0.64; Combination index (HIV-RT; [26]): 0.63
3 | CC(=O)NC1=CC(=O)c2ccc(-c3nc(C(N)=O)cc4c3[nH]c3ccccc34)nc2C1=O [Compound 16, 7-N-Acetyldemethyllavendamycin Amide] | 50 ± 7 µM | 95 ± 45 µM | 0.82 | 0.80 | 0.85 | 1.18 | 0.67 | 0.75 | 0.54 | 0.65 | 0.87 | 0.70 | 0.58 | 0.60 | 1.0 | 1.20 | 0.66 | 0.67 | 1.0 | 1.0 | Combination index (HIV-RT; [27]): 1.50; Combination index (HIV-RT; [28]): 1.61; Combination index (HIV-RT; [19]): 1.10; Combination index (HIV-RT; [20]): 1.10; Combination index (HIV-RT; [25]): 1.00; Combination index (HIV-RT; [26]): 1.00
4 | CC(=O)NC1=CC(=O)c2ccc(-c3nc(C(=O)OCCOP(=O)(O)O)cc4c3[nH]c3ccccc34)nc2C1=O [Compound 19] | 29 ± 5 µM | 27 ± 3 µM |  |  |  |  |  |  |  |  |  |  |  |  | 0.64 | 1.04 | 0.49 | 0.81 | 0.69 | 0.69 | Combination index (HIV-RT; [27]): 0.47; Combination index (HIV-RT; [28]): 0.68; Combination index (HIV-RT; analogue 3 μM + AZT 0.007 μM, Trial 1): 0.49; Combination index (HIV-RT; analogue 3 μM + AZT 0.007 μM, Trial 2): 0.79; Combination index (HIV-RT; analogue 3 μM + AZT 0.01 μM, Trial 1): 0.28; Combination index (HIV-RT; analogue 3 μM + AZT 0.01 μM, Trial 2): 0.56; Combination index (HIV-RT; analogue 6 μM + AZT 0.007 μM, Trial 1): 0.32; Combination index (HIV-RT; analogue 6 μM + AZT 0.007 μM, Trial 2): 0.60; Combination index (HIV-RT; analogue 6 μM + AZT 0.01 μM, Trial 1): 0.28; Combination index (HIV-RT; analogue 6 μM + AZT 0.01 μM, Trial 2): 0.75
